# In patent US20260297060A1, “COMPOUNDS FOR THE DEGRADATION OF MUTANT BRAF” (C4 THERAPEUTICS, INC., priority 2023, published 2026):
# System: A375 human melanoma xenografts
# Test: In vivo therapeutic efficacy in A375 human melanoma xenografts (tumor volume, T/C, TGI), Example 14
# Parameters: species or system human tumor in female BALB/c nude mice
# Settings: for Tumor volume: mean ± SEM; for T/C / TGI: PG-D21
# Description: Agents were tested in the A375 human melanoma xenografts. Compound 26 and Compound 141 were administered to BALB/c nude mice bearing A375 tumors from PG-DO and dosed via PO twice a day (BID) or third a day (TIP) or dosed P daily (QD) from PG-D. Dabrafenib was administered to BALB/c nude mice bearing A375 tumors from PG-D1 and dosed via P daily (QD). Compound 26 was dosed at 1.5 mg/kg (QD), 2 mg/kg (TID), 3 mg/kg (BID), 6 mg/kg (QD) and 10 mg/kg (BID) for 21 days. Compound 141 was dosed at 0.75 mg/kg (BID), 1 mg/kg (TID), 1.5 mg/kg (BID), 3 mg/kg (QD) and 5 mg/kg (BID) for 21 days. Dabrafenib was dosed at 100 mg/kg for 21 days. This study was non-GLP.
# One hundred and thirty-eight female BALB/c nude Mus Musculus mice procured from Shanghai Lingchang Biological Science and Technology Co., LTD between the ages of six to eight weeks and with body weight between eighteen and twenty-two grams were used for the study. A spare mouse was also procured.
# The A375 tumor cells were maintained in vitro in DMEM medium supplemented with 10% fetal bovine serum and 1% Penicillin-Streptomycin at 37° C. in an atmosphere of 5% CO2 in air. The tumor cells were routinely sub-cultured twice weekly. The cells growing in an exponential growth phase were harvested and counted for tumor inoculation.
# Each mouse was inoculated subcutaneously at the right flank with A375 cells (5×10^6) in 0.2 mL of PBS supplemented with Matrigel (PBS: Matrigel=1:1) for tumor development. Animals were grouped for efficacy study on day 15 after tumor inoculation when the average tumor volume reached 220 mm^3. The test articles administration and the animal numbers in each group are shown in the above experimental Table 75.
# At the time of routine monitoring, the animals were checked daily for any effects of tumor growth and treatments on normal behavior such as mobility, food and water consumption (by looking only), body weight gain/loss (body weights were measured twice weekly), eye/hair matting and any other abnormal effect as stated in the protocol. Death and observed clinical signs were recorded on the basis of the numbers of animals within each subset.
# Prior to the onset of drug treatment, mice were measured for tumor size in two dimensions using a caliper, and the tumor volume (mm^3) was calculated using formula V=0.5 a×b^2 where a and b are the long and short diameters of the tumor in mm, respectively. Mice were randomized into different treatment groups based on the tumor volume.
# The major endpoint was to see if the tumor growth could be delayed or mice could be cured. The tumor size was then used for calculations of T/C value. The T/C value (in percent) is an indication of antitumor effectiveness; T and C are the mean volumes of the treated and control groups, respectively on specified day.
# TGI was calculated for each group using the formula: TGI (%)=[1−(Ti−T0)/(Ci−C0)]×100; Ti is the average tumor volume of a treatment group on a given day, T0 is the average tumor volume of the treatment group on the day of treatment start, Ci is the average tumor volume of the vehicle control group on the same day with Ti, and C0 is the average tumor volume of the vehicle group on the day of treatment start.
# A one-way ANOVA followed by Dunnett's multiple comparison test was performed to compare tumor volume among vehicle group (Group 1) and treatment groups (Group 2-Group 12). All data were analyzed using GraphPad Prism, ns indicates p>0.05, * indicates p<0.05, ** indicates p<0.01, *** indicates p<0.001 and **** indicates p<0.0001.
# Tumor growth inhibition of Compound 26, Compound 141 and dabrafenib in the treatment of female BALB/c nude mice bearing A375 xenografts was calculated based on tumor volume measured on […]. TGI and T/C were calculated respectively and the data are detailed in Table 82.
# [1] = Compound 26, 1.5 mg/kg p.o. BID × 21 days
smiles,measurement,setting,value
"CCN(C)S(=O)(=O)Nc1ccc(F)c(Oc2ccc3ncn([C@H]4COC5(CCN(C6CC7(C6)CN(c6cc8c(cc6F)c(N6CCC(=O)NC6=O)nn8C)C7)CC5)C4)c(=O)c3c2)c1C#N [Compound 26, (3R)-3-[6-[2-cyano-3-[[ethyl(methyl)sulfamoyl]amino]-6-fluoro-phenoxy]-4-oxo-quinazolin-3-yl]-8-[2-[3-(2,4-dioxohexahydropyrimidin-1-yl)-5-fluoro-1-methyl-indazol-6-yl]-2-azaspiro[3.3]heptan-6-yl]-1-oxa-8-azaspiro[4.5]decane]",Tumor volume,"3 mg/kg p.o. BID x 21 days, day 46 (dosing-free regrowth)",1050 ± 191 mm^3
same,Tumor volume,"3 mg/kg p.o. BID x 21 days, day 49 (dosing-free regrowth)",1328 ± 237 mm^3
same,Tumor volume,"3 mg/kg p.o. BID x 21 days, day 53 (dosing-free regrowth)",1789 ± 341 mm^3
same,Tumor volume,"3 mg/kg p.o. BID x 21 days, day 56 (dosing-free regrowth)",2242 ± 453 mm^3
same,Tumor Size on PG-D21 (Mean ± SEM),3 mg/kg p.o. BID × 21 days,48 ± 9 mm^3
same,T/C,3 mg/kg p.o. BID × 21 days,2.5%
same,TGI,3 mg/kg p.o. BID × 21 days,110.4%
same,Tumor volume,"6 mg/kg p.o. QD x 21 days, day 0",220 ± 16 mm^3
same,Tumor volume,"6 mg/kg p.o. QD x 21 days, day 4",243 ± 16 mm^3
same,Tumor volume,"6 mg/kg p.o. QD x 21 days, day 7",158 ± 10 mm^3
same,Tumor volume,"6 mg/kg p.o. QD x 21 days, day 11",101 ± 7 mm^3
same,Tumor volume,"6 mg/kg p.o. QD x 21 days, day 14",62 ± 4 mm^3
same,Tumor volume,"6 mg/kg p.o. QD x 21 days, day 18",49 ± 7 mm^3
same,Tumor volume,"6 mg/kg p.o. QD x 21 days, day 21",54 ± 13 mm^3
same,Tumor volume,"6 mg/kg p.o. QD x 21 days, day 25 (dosing-free regrowth)",137 ± 74 mm^3
same,Tumor volume,"6 mg/kg p.o. QD x 21 days, day 28 (dosing-free regrowth)",230 ± 109 mm^3
same,Tumor volume,"6 mg/kg p.o. QD x 21 days, day 32 (dosing-free regrowth)",335 ± 129 mm^3
same,Tumor volume,"6 mg/kg p.o. QD x 21 days, day 35 (dosing-free regrowth)",478 ± 161 mm^3
same,Tumor volume,"6 mg/kg p.o. QD x 21 days, day 39 (dosing-free regrowth)",751 ± 185 mm^3
same,Tumor volume,"6 mg/kg p.o. QD x 21 days, day 42 (dosing-free regrowth)",894 ± 208 mm^3
same,Tumor volume,"6 mg/kg p.o. QD x 21 days, day 46 (dosing-free regrowth)",1363 ± 315 mm^3
same,Tumor volume,"6 mg/kg p.o. QD x 21 days, day 49 (dosing-free regrowth)",1802 ± 396 mm^3
same,Tumor volume,"6 mg/kg p.o. QD x 21 days, day 53 (dosing-free regrowth)",1863 ± 377 mm^3
same,Tumor volume,"6 mg/kg p.o. QD x 21 days, day 56 (dosing-free regrowth)",2305 ± 461 mm^3
same,Tumor Size on PG-D21 (Mean ± SEM),6 mg/kg p.o. QD × 21 days,54 ± 13 mm^3
same,T/C,6 mg/kg p.o. QD × 21 days,2.9%
same,TGI,6 mg/kg p.o. QD × 21 days,110.0%
same,Tumor volume,"10 mg/kg p.o. BID x 21 days, day 0",220 ± 15 mm^3
same,Tumor volume,"10 mg/kg p.o. BID x 21 days, day 4",126 ± 10 mm^3
same,Tumor volume,"10 mg/kg p.o. BID x 21 days, day 7",65 ± 6 mm^3
same,Tumor volume,"10 mg/kg p.o. BID x 21 days, day 11",42 ± 4 mm^3
same,Tumor volume,"10 mg/kg p.o. BID x 21 days, day 14",26 ± 3 mm^3
same,Tumor volume,"10 mg/kg p.o. BID x 21 days, day 18",20 ± 2 mm^3
same,Tumor volume,"10 mg/kg p.o. BID x 21 days, day 21",17 ± 2 mm^3
same,Tumor volume,"10 mg/kg p.o. BID x 21 days, day 25 (dosing-free regrowth)",17 ± 2 mm^3
same,Tumor volume,"10 mg/kg p.o. BID x 21 days, day 28 (dosing-free regrowth)",29 ± 3 mm^3
same,Tumor volume,"10 mg/kg p.o. BID x 21 days, day 32 (dosing-free regrowth)",62 ± 16 mm^3
same,Tumor volume,"10 mg/kg p.o. BID x 21 days, day 35 (dosing-free regrowth)",112 ± 34 mm^3
same,Tumor volume,"10 mg/kg p.o. BID x 21 days, day 39 (dosing-free regrowth)",253 ± 70 mm^3
same,Tumor volume,"10 mg/kg p.o. BID x 21 days, day 42 (dosing-free regrowth)",357 ± 91 mm^3
same,Tumor volume,"10 mg/kg p.o. BID x 21 days, day 46 (dosing-free regrowth)",550 ± 131 mm^3
same,Tumor volume,"10 mg/kg p.o. BID x 21 days, day 49 (dosing-free regrowth)",711 ± 168 mm^3
same,Tumor volume,"10 mg/kg p.o. BID x 21 days, day 53 (dosing-free regrowth)",1021 ± 215 mm^3
same,Tumor volume,"10 mg/kg p.o. BID x 21 days, day 56 (dosing-free regrowth)",1128 ± 250 mm^3
same,Tumor Size on PG-D21 (Mean ± SEM),10 mg/kg p.o. BID × 21 days,17 ± 2 mm^3
same,T/C,"10 mg/kg, p.o., BID × 21 days",0.9%
same,TGI,"10 mg/kg, p.o., BID × 21 days",112.2%
same,minimal effective dose,"A-375, po, tumor bearing mouse model, BID, read-out: maximally efficacious minimal dose (MED)",3 mg/kg
same,Tumor Size on PG-D21 (Mean ± SEM),[1],400 ± 70 mm^3
same,T/C,[1],21.2%
same,TGI,[1],89.2%
